Read-outs that look alike come from different tables or passages of the source.
Experiments:
human H3 receptor = molecular target: T1, human H3 receptor (Homo sapiens, UniProt Q9Y5N1); assay: Human H3 radioligand binding ([3H]-N-alpha-methylhistamine, SPA)
T1 construct: expressed in transfected cells
How it was run: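 Compounds (0.01 nM-30 μM) competed with approximately 1 nM [3H]-N-alpha-methylhistamine for human H3 receptor in membranes of stably transfected CHO cells, 10 μg protein per well, in Tris-HCl pH 7.4/MgCl2/BSA buffer for 4 h at room temperature. Bound radioligand measured by scintillation proximity; 10 μM clobenpropit gave non-specific binding.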

[1] = molecular target: T2, rat histamine H3 receptor (Rattus norvegicus, UniProt Q9QYN8); assay: Rat H3 radioligand binding ([3H]-N-alpha-methylhistamine, SPA)
T2 construct: encoding the entire 445-amino-acid rat histamine H3 receptor; expressed in transfected cells; membrane preparation
How it was run: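 SPA-bead binding assay using [3H]-N-alpha-methylhistamine (approximately 1 nM final) with test compounds from 0.01 nM to 30 μM. Rat H3 receptor membranes came from stably transfected CHO-A3 cells; incubation ran 4 h at room temperature, in the dark, in Tris pH 7.4 buffer with MgCl2 and BSA. Clobenpropit (10 μM) gave non-specific binding.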

[2] = Human H3 binding, Table B, Examples 136-362, read-out: hum H3 binding Ki
[3] = Rat H3 binding, Table B, Examples 136-362, read-out: rat H3 binding Ki
[4] = human H3 binding, Table D, read-out: Human H3 Ki
[5] = rat H3 binding, Table D, read-out: Rat H3 Ki
[6] = Table C, human H3 binding, read-out: Human H3 Ki
[7] = Table C, rat H3 binding, read-out: Rat H3 Ki
[8] = Table A, human H3 binding, read-out: Human Ki
[9] = Table A, rat H3 binding, read-out: Rat Ki

T1 sequence (Q9Y5N1 whole entry): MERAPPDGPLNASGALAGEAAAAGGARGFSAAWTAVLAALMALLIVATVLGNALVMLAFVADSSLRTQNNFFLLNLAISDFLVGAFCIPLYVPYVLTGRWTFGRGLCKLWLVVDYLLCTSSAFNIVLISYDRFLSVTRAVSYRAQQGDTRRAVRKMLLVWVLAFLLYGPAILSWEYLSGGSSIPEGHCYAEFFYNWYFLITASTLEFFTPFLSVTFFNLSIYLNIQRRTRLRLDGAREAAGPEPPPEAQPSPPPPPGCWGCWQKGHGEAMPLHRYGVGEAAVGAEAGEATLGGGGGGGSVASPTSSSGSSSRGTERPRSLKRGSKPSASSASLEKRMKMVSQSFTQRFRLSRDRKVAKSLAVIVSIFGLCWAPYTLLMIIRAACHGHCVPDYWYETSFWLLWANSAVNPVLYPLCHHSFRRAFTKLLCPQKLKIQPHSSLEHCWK
T2 sequence (Q9QYN8 whole entry): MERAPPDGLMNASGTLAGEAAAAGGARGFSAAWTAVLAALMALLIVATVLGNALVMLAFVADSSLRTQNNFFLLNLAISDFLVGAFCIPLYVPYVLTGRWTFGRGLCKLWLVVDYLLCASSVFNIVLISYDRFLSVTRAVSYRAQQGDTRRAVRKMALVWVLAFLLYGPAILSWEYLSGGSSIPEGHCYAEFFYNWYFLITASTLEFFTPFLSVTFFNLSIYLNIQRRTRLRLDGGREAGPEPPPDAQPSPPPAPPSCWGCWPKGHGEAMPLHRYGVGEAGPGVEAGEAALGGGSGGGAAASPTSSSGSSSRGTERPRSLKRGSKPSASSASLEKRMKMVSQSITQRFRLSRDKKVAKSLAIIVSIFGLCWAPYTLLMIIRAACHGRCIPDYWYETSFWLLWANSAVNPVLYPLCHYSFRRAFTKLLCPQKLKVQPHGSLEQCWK

Structure (SMILES) | melting point | Ki (human H3 receptor; [2]) [nM] | Ki [1, 3] [nM] | Ki (human H3 receptor; [4]) [nM] | Ki [1, 5] [nM] | further results
CNC(=O)c1cc(Oc2ccc3c(c2)CCC2(CCN(C4CCC4)CC2)O3)ccn1 [Example 281] | 255 to 257 °C | < 200 | < 200 | – | – | –
CNC(=O)C1CC(O)(c2ccc3c(c2)COC2(CCN(C4CCC4)CC2)O3)C1 (stereo not drawn) [Example 494] | 246 to 248 °C | – | – | – | – | Ki (human H3 receptor; read-out: Human H3 Ki): < 200 nM; Ki ([1]; read-out: Rat H3 kI): < 200 nM
Cc1ccccc1-c1ccc2c(c1)COC1(CCN(C3CCC3)CC1)O2 [Example 138] | 241 to 243 °C | < 200 | < 200 | – | – | –
COc1cc(-c2ccc3c(c2)COC2(CCN(C4CCC4)CC2)O3)ccc1C(=O)N1CCOCC1 [Example 636] | 94 to 96 °C | – | – | < 200 | < 200 | –
O=C(Nc1ccc2c(c1)CCC1(CCN(C3CCC3)CC1)O2)c1ccnnc1 [Example 289] | 213 to 215 °C | < 200 | < 200 | – | – | –
c1cc2c(cc1N1CCCCC1)CCC1(CCN(C3CCC3)CC1)O2 [Example 393] | > 280 °C (dec.) | – | – | – | – | Ki (human H3 receptor; [6]): < 200 nM; Ki [1, 7]: < 200 nM
Cc1nnc(C2CCC(c3ccc4c(c3)COC3(CCN(C5CCC5)CC3)O4)CC2)o1 (stereo not drawn) [Example 707] | 62.4 to 64.7 °C | – | – | < 200 | < 200 | –
CN(C)C(=O)C1CC(N2CCC3(CC2)OCc2cc(-c4ccc(=O)[nH]c4)ccc2O3)C1 (stereo not drawn) [Example 735] | 247 to 249 °C | – | – | > 1000 | > 1000 | –
OC1(c2ccc3c(c2)COC2(CCN(C4CCC4)CC2)O3)CCCCC1 [Example 512] | 164 to 165 °C | – | – | – | – | Ki (human H3 receptor; read-out: Human H3 Ki): < 200 nM; Ki ([1]; read-out: Rat H3 kI): < 200 nM
COCCNC(=O)c1ccc(-c2ccc3c(c2)COC2(CCN(C4CCC4)CC2)O3)cc1Cl [Example 330] | 234 to 235 °C | < 200 | < 200 | – | – | –
Cc1ccc(C#N)c(Nc2ccc3c(c2)COC2(CCN(C4CCC4)CC2)O3)n1 [Example 236] | 56 to 58 °C | < 200 | < 200 | – | – | –
O=C(Nc1ccccc1)Nc1ccc2c(c1)COC1(CCN(C3CCC3)CC1)O2 [Example 162] | 229 to 231 °C | < 200 | < 200 | – | – | –
O=C(NC1CCOCC1)c1cccc(COc2ccc3c(c2)CCC2(CCN(C4CCC4)CC2)O3)c1 [Example 646] | 158 to 160 °C | – | – | < 200 | < 200 | –
O=C1N(c2ccc(C(F)(F)F)nc2)CCN1c1ccc2c(c1)COC1(CCN(C3CCC3)CC1)O2 [Example 242] | 222 to 224 °C | < 200 | < 200 | – | – | –
CNC(=O)c1ccc(-c2ccc3c(c2)COC2(CCN(C4CCC4)CC2)O3)c(C)c1 [Example 681] | 210 to 211 °C | – | – | < 200 | < 200 | –
CCOC(=O)c1cc(=O)n(C)cc1-c1ccc2c(c1)COC1(CCN(C3CCC3)CC1)O2 [Example 762] | 71 to 74 °C | – | – | < 200 | < 200 | –
Nc1ccc(-c2ccc3c(c2)COC2(CCN(C4CCC4)CC2)O3)cn1 [Example 566] | 201 to 203 °C | – | – | – | – | Ki (human H3 receptor; read-out: Human H3 Ki): < 200 nM; Ki ([1]; read-out: Rat H3 kI): < 200 nM
CNC(=O)N1CCN(c2ccc3c(c2)COC2(CCN(C4CCC4)CC2)O3)CC1 [Example 174] | 59 to 62 °C | < 200 | < 200 | – | – | –
COc1ccncc1-c1ccc2c(c1)COC1(CCN(C3CCC3)CC1)O2 [Example 749] | 58 to 60 °C | – | – | < 200 | < 200 | –
c1cn2cc(-c3ccc4c(c3)COC3(CCN(C5CCC5)CC3)O4)ccc2n1 [Example 19] | 64.5 to 66 °C | – | – | – | – | Ki (human H3 receptor; [8]): < 200 nM; Ki [1, 9]: < 200 nM
CC(C)NC(=O)c1ccc(-c2ccc3c(c2)COC2(CCN(C4CCC4)CC2)O3)cc1 [Example 301] | 221 to 222 °C | < 200 | < 200 | – | – | –
O=C(c1ccc(Nc2ccc3c(c2)COC2(CCN(C4CCC4)CC2)O3)cc1)N1CCOCC1 [Example 172] | 79 to 84 °C | < 200 | < 200 | – | – | –
CN1CCN(c2ccc3c(c2)CCC2(CCN(C4CCC4)CC2)O3)C1=O [Example 121] | 228 to 230 °C | – | – | – | – | Ki (human H3 receptor; [8]): < 200 nM; Ki [1, 9]: < 200 nM
Cc1nn(C)c(C)c1-c1ccc2c(c1)COC1(CCN(C3CCC3)CC1)O2 [Example 199] | 140 to 143 °C | < 200 | < 200 | – | – | –
O=C(CCc1ccc2c(c1)COC1(CCN(C3CCC3)CC1)O2)N1CCOCC1 [Example 660] | 71 to 73 °C | – | – | < 200 | < 200 | –

Structure (SMILES) | melting point | Ki (human H3 receptor; [2]) [nM] | Ki [1, 3] [nM] | Ki (human H3 receptor; [4]) [nM] | Ki [1, 5] [nM] | further results
c1cnc(-c2ccc3c(c2)COC2(CCN(C4CCC4)CC2)O3)cn1 [Example 71] | 114 to 115 °C | – | – | – | – | Ki (human H3 receptor; [8]): < 200 nM; Ki [1, 9]: < 200 nM
O=C(NC1CCOCC1)c1ccc(-c2ccc3c(c2)COC2(CCN(C4CCC4)CC2)O3)c(Cl)c1 [Example 686] | 170 to 173 °C | – | – | < 200 | < 200 | –
C/C=C(\CC)c1ccc2c(c1)COC1(CCN(C3CCC3)CC1)O2 [Example 677] | 223.5 to 225.8 °C | – | – | < 200 | < 200 | –
CCC(=O)N1CCN(c2ccc3c(c2)COC2(CCN(C4CCC4)CC2)O3)C(=O)C1 [Example 739] | 146 to 148 °C | – | – | < 200 | < 200 | –
CCOC(=O)C1CC=C(c2ccc3c(c2)CCC2(CCN(C4CCC4)CC2)O3)CC1 (stereo not drawn) [Example 455] | 137 to 139 °C | – | – | – | – | Ki (human H3 receptor; read-out: Human H3 Ki): < 200 nM; Ki ([1]; read-out: Rat H3 kI): < 200 nM
CNc1cc(C(=O)Nc2ccc3c(c2)COC2(CCN(C4CCC4)CC2)O3)ccn1 [Example 323] | 207 to 208 °C | < 200 | < 200 | – | – | –
Fc1ncccc1-c1ccc2c(c1)COC1(CCN(C3CCC3)CC1)O2 [Example 47] | 95 to 100 °C | – | – | – | – | Ki (human H3 receptor; [8]): < 200 nM; Ki [1, 9]: < 200 nM
c1cncc(Oc2ccc3c(c2)CCC2(CCN(C4CCC4)CC2)O3)c1 [Example 257] | 255 to 257 °C | < 200 | < 200 | – | – | –
CC(C)Cn1cc(-c2ccc3c(c2)CCC2(CCN(C4CCC4)CC2)O3)cn1 [Example 187] | 106 to 108 °C | < 200 | < 200 | – | – | –
O=C(Nc1ccccc1)N1CCN(c2ccc3c(c2)COC2(CCN(C4CCC4)CC2)O3)CC1 [Example 276] | 194.6 to 195.8 °C | < 200 | < 200 | – | – | –
CC(=O)N[C@@H]1CCN(c2ccc3c(c2)COC2(CCN(C4CCC4)CC2)O3)C1 [Example 343] | 77.9 to 79.9 °C | < 200 | < 200 | – | – | –
CNC(=O)NCc1ccc(-c2ccc3c(c2)COC2(CCN(C4CCC4)CC2)O3)cc1 [Example 181] | 205 to 206.5 °C | < 200 | < 200 | – | – | –
OC1(c2ccc3c(c2)COC2(CCN(C4CCC4)CC2)O3)CCSC1 (stereo not drawn) [Example 471] | 125 to 126 °C | – | – | – | – | Ki (human H3 receptor; read-out: Human H3 Ki): < 200 nM; Ki ([1]; read-out: Rat H3 kI): < 200 nM
COCC(C)(C)NC(=O)c1ccc(-c2ccc3c(c2)CCC2(CCN(C4CCC4)CC2)O3)cc1 [Example 274] | 264 to 266 °C | < 200 | < 200 | – | – | –
Cc1[nH]c(=O)ccc1-c1ccc2c(c1)COC1(CCN(C3CCC3)CC1)O2 [Example 736] | 191 to 193 °C | – | – | < 200 | < 200 | –
O=c1[nH]cc(-c2ccc3c(c2)COC2(CCN(C4CCC4)CC2)O3)c2ccccc12 [Example 777] | 202 to 204 °C | – | – | < 200 | < 200 | –
CNC(=O)c1cnc(-c2ccc3c(c2)COC2(CCN(C4CCC4)CC2)O3)s1 [Example 164] | 200 to 203 °C | < 200 | < 200 | – | – | –
COc1ccc(/C=C/c2ccc3c(c2)COC2(CCN(C4CCC4)CC2)O3)nn1 [Example 510] | 168 to 170 °C | – | – | – | – | Ki (human H3 receptor; read-out: Human H3 Ki): < 200 nM; Ki ([1]; read-out: Rat H3 kI): < 200 nM
O=c1cc(-c2ccc3c(c2)COC2(CCN(C4CCC4)CC2)O3)cc[nH]1 [Example 475] | 211 to 213 °C | – | – | – | – | Ki (human H3 receptor; read-out: Human H3 Ki): < 200 nM; Ki ([1]; read-out: Rat H3 kI): < 200 nM
CNC(=O)c1ccc(-c2ccc3c(c2)CCC2(CCN(C4CCC4)CC2)O3)nc1 [Example 595] | 192 to 194 °C | – | – | < 200 | < 200 | –
CNC(=O)c1ccc(OC2CCN(c3ccc4c(c3)CCC3(CCN(C5CCC5)CC3)O4)CC2)nc1 [Example 439] | 214 to 216 °C | – | – | – | – | Ki (human H3 receptor; [6]): < 200 nM; Ki [1, 7]: < 200 nM
c1ccc(COc2ccc3c(c2)CCC2(CCN(C4CCC4)CC2)O3)cc1 [Example 189] | 102 to 103 °C | < 200 | < 200 | – | – | –
O=C(Nc1ccc2c(c1)COC1(CCN(C3CCC3)CC1)O2)c1ccnc(N2CCOCC2)c1 [Example 313] | 205 to 207 °C | < 200 | < 200 | – | – | –
COc1cc(-c2ccc3c(c2)COC2(CCN(C4CCC4)CC2)O3)ccc1C(=O)NC1CCOCC1 [Example 635] | 86 to 88 °C | – | – | < 200 | < 200 | –

From US8513232B2, “Substituted spirocyclic piperidine derivatives as histamine-3 (H3) receptor ligands” (Cephalon, Inc., priority 2008, dated 2013)
